Where a SMILES comes first, the peptide text is derived from it. The star is where a group is joined. Tos = Cc1ccc(S(=O)(=O)*)cc1; tBu = CC(C)(C)*

In one data set the test system is Experimental Autoimmune (or Allergic) Encephalomyelitis. Put plainly: Experimental Autoimmune Encephalomyelitis (EAE) model, motor impairment. The settings on record: rats or guinea pigs; treatment from Day 8, bid for five days, SC, PO or IP. Format: in vivo.
For `Cc1ccc(S(=O)(=O)N2CCC[C@H]2C(=O)N[C@@H](Cc2ccc(OC(C)(C)C)cc2)C(=O)O)cc1` [Example 10, N-(Toluene-4-sulfonyl)-L-prolyl-4-(O-tert-butyl)-L-tyrosine] (Tos-Pro-Tyr(tBu)-OH), the “active in EAE in vivo assay (delayed the onset of symptoms, e.g. clinical scores no greater than 2 or slowed body weight loss as compared to the control)” value is “active”.

In the case of “N-(Toluene-4-sulfonyl)-L-(5,5-dimethyl) thiaprolyl-L-(N-benzyl)-histidine [Example 27]”, the “active in EAE in vivo assay (delayed the onset of symptoms, e.g. clinical scores no greater than 2 or slowed body weight loss as compared to the control)” value is on record as “active”.

Tested on in another data set: not given
Experiment: not given
Settings: not given
`Cc1ccc(S(=O)(=O)N2CCC[C@H]2C(=O)N[C@@H](C)C(=O)O)cc1` [Example 16, N-(Toluene-4-sulfonyl)-L-prolyl-L-alanine] (Tos-Pro-Ala-OH) had a melting point of 160.5 to 162.5 °C.

In the case of `Cc1ccc(S(=O)(=O)N2CCC[C@H]2C(=O)N[C@@H](CC(=O)O)C(=O)O)cc1` [Example 19, N-(Toluene-4-sulfonyl)-L-prolyl-L-aspartic acid] (Tos-Pro-Asp-OH), the melting point lay within 174 to 176 °C. On the same count and under the same terms, then `CC(C)OC(=O)[C@H](Cc1ccc(O)cc1)NC(=O)[C@@H]1CCCN1S(=O)(=O)c1cn(C)cn1` [Example 226, N-(1-Methylimidazol-4-sulfonyl)-L-prolyl-(4-hydroxyl)-L-phenylalanine isopropyl ester], with 159 to 162 °C. The compound `Cc1ccc(S(=O)(=O)N2CCC[C@H]2C(=O)N[C@@H](Cc2ccc(C(=O)N[C@@H]3Cc4ccccc4C=N3)cc2)C(=O)O)cc1` [Example 52, N-(Toluene-4-sulfonyl)-L-prolyl-L-4[(3S)-3,4-dihydro-isoquinolin-3-yl-aminocarbonyl]-phenylalanine] yielded a melting point of 145 to 150 °C. The compound `Cc1ccc(S(=O)(=O)N[C@@H](CCC(=O)O)C(=O)N[C@@H](Cc2ccc(O)cc2)C(=O)O)cc1` [Example 30, N-(Toluene-4-sulfonyl)-L-glutamyl-L-tyrosine] (Tos-Glu-Tyr-OH) came in with a melting point of 173 to 175 °C. Regarding `Cc1ccc(S(=O)(=O)N2CCC[C@H]2C(=O)N[C@@H](Cc2ccc(OCCN(Cc3ccccc3)Cc3ccccc3)cc2)C(=O)O)cc1` [Example 45, N-(Toluene-4-sulfonyl)-L-prolyl-L-O-[2-(dibenzylamino)ethyl]-tyrosine], the melting point lay in the range of 106 to 110 °C. The same measure, in the same setting: then `Cc1ccc(S(=O)(=O)N2CCC[C@H]2C(=O)N[C@@H](Cc2ccc(NC(=O)Nc3ccc(C#N)cc3)cc2)C(=O)O)cc1` [Example 49, N-(Toluene-4-sulfonyl)-L-prolyl-L-4-[3-(4-cyanophenyl)-ureido]-phenylalanine], with 163 to 165 °C.

In general, melting point refers to the temperature of the solid-liquid transition.

Values taken from patent publication US6583139B1, “Compounds which inhibit leukocyte adhesion mediated by VLA-4” (priority 1997, dated 2003).
